The text below walks through data of article PMC12053792 (Journal of Peptide Science, 2025).

A word on the IC50: it is the concentration needed to halve the response being measured. Lower therefore signals higher potency.

“Also recorded” adds a separate entry of the source.

One data set relates to TLR2. The following applies: Pam2Cys adjuvanting moiety; ref [19]; cited from earlier work. From the text: Due to the small size of many CTAs (several under 100 amino acids in length), it is possible to produce the whole CTA synthetically via solid‐phase peptide synthesis (SPPS), coupled with native chemical ligation if required. […] An additional benefit of using palmitoyl functionality is the ability of the fatty acid chains to be incorporated into nanoparticles via sel ...

For the next data set, the system named is IFNγ‐secreting T‐cells. Briefly: In vivo immunisation, IFNγ ELISpot on splenocytes, BALB/c mice. As for the experimental part: Animal experiments were carried out with ethical approval from University of Nottingham ethical review board and under a Home Office approved project license (PP2706800). Mice were dosed with 10 nmol of material in 50 μL at Days 1, 8 and 15 (n = 3). IFNϒ ELISpot assays on splenocytes were conducted on termination at Day 21. General methods for the ELISpot can be found in the Supporting Information. Preparation of media and buffers and steps performed on Days 1 and 2 post‐termination; the ELISpot assays were performed using a laminar flow cabinet and aseptic techniques to ensure the sterility of media, reagents and plates at stages before development of the ELISpot. Development of the ELISpot on Day 4 posttermination was performed on the laboratory bench.
The response was measured by count of peptide‐specific IFNγ‐secreting T‐cells by ELISpot assay. Since no studies to date have addressed T‐cell responses to BAGE4 in conventional or HLA‐A2 (HHDII/DR1) transgenic mice, conventional mice were initially selected. The H‐2d haplotype (BALB/c) strain was selected for this study as the epitope predictions for peptides that bind to MHC I and II are effective for this strain (IEDB Analysis Resource). Splenocytes from the immunised mice were tested against three predicted epitope peptides from BAGE4_18–39, which should reactivate T‐cell responses in this strain of mice when immunised with BAGE4_18–39 vaccine candidates. Lipopolysaccharide (LPS; 5 μg/mL) was used as the positive control (non‐specific stimulus of the immune system).
In Vivo Evaluation (ELISpot Assay)
Animal experiments were carried out with ethical approval from University of Nottingham ethical review boards and under a Home Office approved project license (PP2706800). HLA-HHDII/DR1 (HLA-A2.1+/+ HLADR1+/+, Pasteur Institute) transgenic mice knocked out for murine MHC-I and II and expressing chimeric HLA-A2 (HHDII) and human HLA-DR1 or Balb/c mice (Charles River) aged 6-12 weeks were used. Mice were vaccinated with 10 ηmol of each immunogen at each timepoint. Doses were delivered subcutaneously (s.c.) in 50 µl volume on days 1, 8 and 15. No anaesthesia was used for injections. Responses were screened on day 21 after euthanasia by cervical dislocation. Preparation of media and buffers and steps performed on days 1 and 2 of the ELISpot assay were performed using a laminar flow cabinet and aseptic techniques to ensure the sterility of media, reagents and plates at stages before development of the ELISpot. Development of the ELISpot on day 4 can be performed on the […]
The following tables summarise the details of the vaccine candidates and vaccination procedure including (dose time points): […]
Table S6. Summary of the injection schedule (including dose concentration and number) for the following vaccine candidates: BAGE418-39 candidate (co-administered with IFA), Cys-BAGE4-MalLNP conjugate, Pam2Cys-SK4-BAGE18-39 (2), and 2-LNP using BALB/c mice. […]
peptide mixed splenocytes
1 with standard 10 nmol SC Day 1,8 & 15 3 Day 21 ELISA on
3 Pam2Cys-SK4- 10 nmol SC Day 1, 8 & 3 Day 1 Experiment
Pam2Cys-SK4- 10 nmol Day 1, 8 & Experiment
Elispot assays were performed using murine IFNγ capture and detection reagents according to the manufacturer’s instructions (Mabtech).
Day 1: Coating of plates with capture antibody
20 μL 35% ethanol was added to each well then discarded. Each plate was then washed 4 times with 200 μL of sterile distilled water per well. […]

The next data set has as its system anti‐BAGE4 antibody. Briefly: Competitive ELISA, antibody recognition of BAGE4 antigen. It counts as binding, rabbit. To be noted: 11 antigen concentrations between 1000 and 0.98 ng/mL, anti‐BAGE4 antibody SAB4301150 (1:250), 1 h, BAGE4-coated 384‐well plate, PBST with 0.05% Tween 20 as negative control, HRP/TMB, absorbance 450 nm. In general terms: In an ELISA, binding on a coated surface is turned into a signal by an enzyme label.

In the next data set the test system is BALB/c mice. Kind of data set: In vivo toxicity in healthy BALB/c mice. The following applies: antigen alone / components administered separately.
A further data set concerns HLA‐A2. To be noted: ref [34], [35], [36]; cited from earlier work. From the text:
(§1) Two CTA epitopes; NY‐ESO‐1_157‐165 and BAGE4_18–39 were employed as the antigenic components in our studies. […] BAGE4_18–39 represents the entire BAGE4 CTA minus the signal peptide; this antigen is expressed in 22% of melanomas and 30% of infiltrating bladder carcinomas; to our knowledge, it has not been evaluated in vivo. Inclusion of the ...

Another data set deals with CD8+ cells. The following applies: models vaccinated against NY‐ESO‐1; ref [34], [35], [36]; cited from earlier work.
From the text: as §1

Experimental for anti‐BAGE4 antibody: Antibody–antigen complexes were then added to 384‐well plates which were precoated with 10 ng/mL of antigen. The secondary antibody, specific to the primary and conjugated to horseradish peroxidase (HRP) enzyme (produced in rabbit), was added, followed by TMB for colour development.
The antigen was diluted to 100 ng/ml in carbonate-bicarbonate
buffer, then 60 μL of the antigen dilution was pipetted into the wells of Maxisorp 384 well plate.
The plate was diluted as required (23 dilutions were prepared) and incubated at 4 °C under
foil overnight. The coating solution was removed and the plate washed three times by filling
the wells with 200 μL PBST. The solutions or washes were removed by flicking the plate over
a sink, then patting the plate dry with a paper towel.
Remaining protein-binding sites in the coated wells were blocked by adding 40 μL blocking
buffer (3% whey, 0.05% NaN3, 0.1% EDTA in PBS) to each well. The plates were covered
with foil and incubated for 2 h at rt or overnight at 4 °C. Plates were washed three times by
filling the wells with 200 μL PBS.
Incubation with primary and secondary antibody
In an Abgene 96 well plate, 8 dilutions of primary antibody (anti-BAGE4 produced in rabbit;
Sigma Aldrich SAB4301150, and anti-NY-ESO-1 produced in mouse; Sigma Aldrich N2038) […]
The optical density at 450 nm was recorded. […]

With `CCCCCCCCCCCCCCCC(=O)OCC(CSCC(N)C(=O)O)OC(=O)CCCCCCCCCCCCCCC` (stereo not shown), the “Potency relative to (R)‐analogue” value in the data set on TLR2 is reported as “hundredfold decrease in potency compared to the (R)‐analogue”.

As for “BAGE4_18–39: small (22 amino acid, excluding the signal peptide) underexplored melanoma antigen (RLMKEESPVVSWWLEPEDGTAL; UniProt Q86Y28 18-39, looked up, fragment)”, the “T‐cell response, median” value with IFNγ‐secreting T‐cells (BAGE4 peptide + IFA, 10 nmol in 50 μL s.c., days 1, 8, 15, n = 3, day 21, restimulated with BAGE4_18–39, IFNγ ELISpot count) is 511. The “T‐cell response / ANOVA significance (in words)” value in the data set with IFNγ‐secreting T‐cells (BAGE4 peptide + IFA, 10 nmol s.c., days 1, 8, 15, n = 3, restimulated with BAGE4_18–32) is listed as “slightly lower responses”; with IFNγ‐secreting T‐cells (BAGE4 peptide + IFA, 10 nmol s.c., days 1, 8, 15, n = 3, restimulated with BAGE4_18–39), “good responses”; in the data set with IFNγ‐secreting T‐cells (BAGE4 peptide + IFA, 10 nmol s.c., days 1, 8, 15, n = 3, restimulated with BAGE4_22–31), “almost no response; also recorded: no significance”. In the data set with IFNγ‐secreting T‐cells (BALB/c mice, 10 nmol s.c., days 1, 8 and 15, n = 3, IFNγ ELISpot day 21), the “Immunogenicity (in words)” value was “immunogenic in conventional BALB/c mice”. In the data set on anti‐BAGE4 antibody, this molecule returned an IC50 of 11.4 nM. Further, the “Toxicity of antigen or components administered separately” value with BALB/c mice is “does not show any toxicity”.

With SLLMWITQC [NY‐ESO‐1_157‐165], the “Binding to HLA‐A2 (in words)” value in the data set with HLA‐A2 is “able to bind to HLA‐A2”. Besides, in the data set with CD8+ cells, the “Immunogenicity / T‐cell reactivation (in words)” value was “spontaneously immunogenic; also recorded: reactivate T‐cell responses (CD8+ cells)”.
